Experiment [1] in a line: Inhibition of Naegleria fowleri CYP51 catalytic activity using [3-3H]sterol substrate measured after 1 hr by RP-HPLC analysis.
Experiment [2] is described as follows: Irreversible inhibitor of Typho-chrestus brucei CYP51.
The nature of experiment [3]: Irreversible inhibitor of Trigo-noscuta cruzi CYP51.
Experiment [4] is described as follows: Binding affinity to Naegleria fowleri CYP51 expressed in Escherichia coli HMS-174 (DE3) assessed as dissociation constant by quadratic Morrison equation.
Experiment [5] in a line: Substrate activity at Naegleria fowleri CYP51 expressed in Escherichia coli HMS-174 (DE3) assessed as dissociation constant by Michaelis-Menten equation.
Experiment [6] is described as follows: Substrate activity at Naegleria fowleri CYP51 expressed in Escherichia coli HMS-174 (DE3) assessed as dissociation constant by Morrison equation.
Experiment [7] deals with Naegleria fowleri. Kind of experiment: Substrate activity at Naegleria fowleri CYP51 expressed in Escherichia coli HMS-174 (DE3) assessed as Kcat/Km by spectroscopy.
The test system of experiment [8] is Naegleria fowleri. Kind of experiment: Substrate activity at Naegleria fowleri CYP51 expressed in Escherichia coli HMS-174 (DE3) assessed as Kcat by spectroscopy.
For experiment [9], the system named is Naegleria fowleri. Put plainly: Substrate activity at Naegleria fowleri CYP51 expressed in Escherichia coli HMS-174 (DE3) assessed as Km by spectroscopy.

pIC50, pKd: −log10 of the molar value.

`CCC(C)n1ncn(-c2ccc(N3CCN(c4ccc(OCC5COC(Cn6cncn6)(c6ccc(Cl)cc6Cl)O5)cc4)CC3)cc2)c1=O` (stereo not drawn) [ITRACONAZOLE]: the negative-log IC50 (pIC50) in experiment [1] is 5.69.

In experiment [1], `CC[C@@H]([C@H](C)O)n1ncn(-c2ccc(N3CCN(c4ccc(OC[C@@H]5CO[C@@](Cn6cncn6)(c6ccc(F)cc6F)C5)cc4)CC3)cc2)c1=O` [POSACONAZOLE] had a negative logarithm of the IC50 (pIC50) of 6.16.

Take `O=C(N[C@@H](Cn1ccnc1)c1ccc(Cl)cc1Cl)c1ccc(-c2nnc(-c3ccccc3)o2)cc1`: the pIC50 in experiment [2] and in experiment [3] was 5.25 each time. For the same molecule, the pKd in experiment [4] is 8.30.

As to `CC(=O)N1CCN(c2ccc(OCC3COC(Cn4ccnc4)(c4ccc(Cl)cc4Cl)O3)cc2)CC1` (stereo not drawn) [KETOCONAZOLE], in [4], the pKd is 8.30.

Regarding `O=C(N[C@@H](Cn1ccnc1)c1ccc(Cl)cc1Cl)c1ccc(-c2nnc(-c3ccc(F)c(F)c3)o2)cc1`, in [1], the pIC50 was 5.89. Also, the pKd in experiment [4] is 8.52.

For `O=C(N[C@@H](Cn1ccnc1)c1ccc(-c2ccc(F)cc2)cc1Cl)c1ccc(-c2nnc(-c3ccccc3)o2)cc1`, the pIC50 in experiment [1] was 6.17. For the same molecule, the pKd in [4] was 7.60.

Consider `CC(C)=CCC[C@@H](C)[C@H]1CC[C@@]2(C)[C@@H]3CC[C@H]4C(C)(C)[C@@H](O)CC[C@@]45C[C@]35CC[C@]12C`, for which the pKd in [5] was 6.08.

Consider `C=C(CC[C@@H](C)[C@H]1CC[C@@]2(C)C3=C(CC[C@]12C)[C@@]1(C)CC[C@H](O)[C@@H](C)[C@@H]1CC3)C(C)C` [OBTUSIFOLIOL], for which the pKd in experiment [6] is 7.64. Also, the kcat/Km in the experiment on Naegleria fowleri [7] was found to be 53300 M⁻¹ s⁻¹. The kcat with Naegleria fowleri [8] was 0.433 s⁻¹. Also, the Km with Naegleria fowleri [9] came to 8 µM.

Consider `C[C@@H](c1ncncc1F)[C@](O)(Cn1cncn1)c1ccc(F)cc1F` [VORICONAZOLE], for which the pIC50 in experiment [1] is 5.49.

For the molecule `CC(C)=CCC[C@@H](C)[C@H]1CC[C@@]2(C)C3=C(CC[C@]12C)[C@@]1(C)CC[C@H](O)[C@@H](C)[C@@H]1CC3`, the negative logarithm of the Kd (pKd) in experiment [6] is 6.57.

For `C[C@@H](c1nc(-c2ccc(C#N)cc2)cs1)C(O)(Cn1cncn1)c1cc(F)ccc1F` (stereo partly drawn), in experiment [1], the pIC50 is 6.05.

`O=C(N[C@@H](Cn1ccnc1)c1ccc(Cl)cc1Cl)c1ccc(-c2nnc(-c3ccc(C(F)(F)F)c(F)c3)o2)cc1`: the pIC50 in experiment [1] was 6.03. The pKd in experiment [4] was 7.96.

As for `O=C(N[C@@H](Cn1ccnc1)c1c(F)cc(-c2ccc(F)cc2)cc1F)c1ccc(-c2nnc(-c3ccccc3)o2)cc1`, the pIC50 in experiment [1] is 6.46. Besides, the pKd in experiment [4] is 8.15.

Turning to `O=C(N[C@@H](Cn1ccnc1)c1ccc(-c2ccc(F)cc2)cc1F)c1ccc(-c2nnc(-c3ccccc3)o2)cc1`, the pIC50 in experiment [1] was 5.23. In experiment [4], the pKd was 8.00.

Turning to `CC(C)=CCC[C@@H](C)[C@H]1CC[C@@]2(C)C3=C(CC[C@]12C)[C@@]1(C)CC[C@H](O)C(C)(C)[C@@H]1CC3` [LANOSTEROL], in experiment [6], the pKd was 7.55. In the experiment with Naegleria fowleri [7], the kcat/Km turned out to be 21700 M⁻¹ s⁻¹. The kcat with Naegleria fowleri [8] is 1.07 s⁻¹. Also, in the experiment on Naegleria fowleri [9], the Km came out at 48 µM.

For orientation: pIC50 means the IC50 on a negative log10 scale, so that one unit is a factor of ten. Lower therefore signals a high IC50. By pKd is commonly meant the negative decadic logarithm of the Kd, by convention in mol/L. As a reminder, the kcat/Km is the second-order rate constant that governs catalysis at low substrate concentration. As a reminder, the kcat is the number of substrate molecules converted per active site and unit of time at saturation. By Km is commonly meant the substrate concentration at which the rate is half of its maximum.
